In brackets after ≈: the same amount, converted by molar mass.
Tests used:
Test in all cases: MIC, broth micro dilution assay (NCCLS)
Assay type in all cases: cell-based
[1] = tested on: Staphylococcus aureus A15090; details: Mueller-Hinton medium, 35° C., 18 hours
Protocol: (§1) The serial broth dilution method used Mueller-Hinton medium except for the Streptococcus pneumoniae which was tested in 50% Mueller-Hinton medium and 50% Todd Hewitt medium. The final bacterial inoculate contained approximately 5×10^5 cfu/well and was run on microtiter plates. The volume of each well was 100 μL and the plates were incubated at 35° C. for 18 hours in ambient air. The MIC was defined as the lowest drug concentration that prevented visible growth.

[2] = tested on: Streptococcus pneumoniae A28272; details: 50% Mueller-Hinton medium and 50% Todd Hewitt medium, 35° C., 18 hours
Protocol: as §1

[3] = tested on: Enterococcus faecalis A20688; details: Mueller-Hinton medium, 35° C., 18 hours
Protocol: as §1

SMILES | MIC (μg/mL) Staphylococcus aureus A15090 [1] [µg/mL] | MIC (μg/mL) Streptococcus pneumoniae A28272 [2] [µg/mL] | MIC (μg/mL) Enterococcus faecalis A20688 [3] [µg/mL]
C=C(NC(=O)c1csc(-c2nc3c(cc2O)-c2nc(cs2)C(=O)NC(C(C)O)C(=O)NC(=C(C)OC)c2nc(cs2)C(=O)NC2c4nc(cs4)C(=O)NC(COC(=O)c4c5c6c(cccc6n4OCCCOC4OC(CO)C(O)C(O)C4O)COC(=O)C(OC4CC(C)(O)C(N(C)C)C(C)O4)C2OC5)c2nc-3cs2)n1)C(N)=O (stereo not drawn) [Example 58] | 16 (≈ 9.65 µM) | 0.06 (≈ 0.0362 µM) | >128
COC(C)=C1NC(=O)C(C(C)O)NC(=O)c2csc(n2)-c2cc(O)c(-c3nc(C(N)=O)cs3)nc2-c2csc(n2)C2COC(=O)c3c4c5c(cccc5n3OCCCCS(=O)(=O)O)COC(=O)C(OC3CC(C)(O)C(N(C)C)C(C)O3)C(OC4)C(NC(=O)c3csc1n3)c1nc(cs1)C(=O)N2 (stereo not drawn) [Example 59] | 16 (≈ 10.6 µM) | 0.5 (≈ 0.332 µM) | >128
C=C(NC(=O)c1csc(-c2nc3c(cc2O)-c2nc(cs2)C(=O)NC(C(C)O)C(=O)NC(=C(C)OC)c2nc(cs2)C(=O)NC2c4nc(cs4)C(=O)NC(COC(=O)c4c5c6c(cccc6n4OC(=O)NC)COC(=O)C(OC4CC(C)(O)C(N(C)C)C(C)O4)C2OC5)c2nc-3cs2)n1)C(N)=O (stereo not drawn) [Example 60] | 0.125 (≈ 0.0836 µM) | 0.001 (≈ 0.000669 µM) | 0.06 (≈ 0.0401 µM)
C=C(NC(=O)c1csc(-c2nc3c(cc2O)-c2nc(cs2)C(=O)NC(C(C)O)C(=O)NC(=C(C)OC)c2nc(cs2)C(=O)NC2c4nc(cs4)C(=O)NC(COC(=O)c4c5c6c(cccc6n4OC(=O)N(C)CCO)COC(=O)C(OC4CC(C)(O)C(N(C)C)C(C)O4)C2OC5)c2nc-3cs2)n1)C(N)=O (stereo not drawn) [Example 61] | 0.03 (≈ 0.0195 µM) | 0.0005 (≈ 0.000325 µM) | 0.03 (≈ 0.0195 µM)
C=C(NC(=O)c1csc(-c2nc3c(cc2O)-c2nc(cs2)C(=O)NC(C(C)O)C(=O)NC(=C(C)OC)c2nc(cs2)C(=O)NC2c4nc(cs4)C(=O)NC(COC(=O)c4c5c6c(cccc6n4OC(=O)NCCOCCOCCOCCOC)COC(=O)C(OC4CC(C)(O)C(N(C)C)C(C)O4)C2OC5)c2nc-3cs2)n1)C(N)=O (stereo not drawn) [Example 62] | 0.125 (≈ 0.0748 µM) | 0.015 (≈ 0.00898 µM) | 0.125 (≈ 0.0748 µM)
C=C(NC(=O)c1csc(-c2nc3c(cc2O)-c2nc(cs2)C(=O)NC(C(C)O)C(=O)NC(=C(C)OC)c2nc(cs2)C(=O)NC2c4nc(cs4)C(=O)NC(COC(=O)c4c5c6c(cccc6n4OS(=O)(=O)[O-])COC(=O)C(OC4CC(C)(O)C(N(C)C)C(C)O4)C2OC5)c2nc-3cs2)n1)C(N)=O.[Na+] (stereo not drawn) [Example 64] | 1.0 | 0.06 | 0.125
C=C(NC(=O)c1csc(-c2nc3c(cc2O)-c2nc(cs2)C(=O)NC(C(C)O)C(=O)NC(=C(C)OC)c2nc(cs2)C(=O)NC2c4nc(cs4)C(=O)NC(COC(=O)c4c5c6c(cccc6n4OP(=O)(O)OCCCl)COC(=O)C(OC4CC(C)(O)C(N(C)C)C(C)O4)C2OC5)c2nc-3cs2)n1)C(N)=O (stereo not drawn) [Example 65] | 0.25 (≈ 0.158 µM) | 0.03 (≈ 0.019 µM) | 0.5 (≈ 0.316 µM)
C=C(NC(=O)c1csc(-c2nc3c(cc2OCc2ccccc2)-c2nc(cs2)C(=O)NC(C(C)O)C(=O)NC(=C(C)OC)c2nc(cs2)C(=O)NC2c4nc(cs4)C(=O)NC(COC(=O)c4c5c6c(cccc6n4OCc4ccccc4)COC(=O)C(OC4CC(C)(O)C(N(C)C)C(C)O4)C2OC5)c2nc-3cs2)n1)C(N)=O (stereo not drawn) [Example 66] | 2.0 (≈ 1.24 µM) | 0.001 (≈ 0.000618 µM) | 0.25 (≈ 0.155 µM)
C=C(NC(=O)c1csc(-c2nc3c(cc2OCCCS(=O)(=O)[O-])-c2nc(cs2)C(=O)NC(C(C)O)C(=O)NC(=C(C)OC)c2nc(cs2)C(=O)NC2c4nc(cs4)C(=O)NC(COC(=O)c4c5c6c(cccc6n4OCCCS(=O)(=O)[O-])COC(=O)C(OC4CC(C)(O)C(N(C)C)C(C)O4)C2OC5)c2nc-3cs2)n1)C(N)=O.[Na+].[Na+] (stereo not drawn) [Example 67] | >128 | 0.5 | 128
C=C(NC(=O)c1csc(-c2nc3c(cc2OCC(=O)OC(C)(C)C)-c2nc(cs2)C(=O)NC(C(C)O)C(=O)NC(=C(C)OC)c2nc(cs2)C(=O)NC2c4nc(cs4)C(=O)NC(COC(=O)c4c5c6c(cccc6n4OCC(=O)OC(C)(C)C)COC(=O)C(OC4CC(C)(O)C(N(C)C)C(C)O4)C2OC5)c2nc-3cs2)n1)C(N)=O (stereo not drawn) [Example 68] | 8.0 (≈ 4.8 µM) | 0.007 (≈ 0.0042 µM) | 4.0 (≈ 2.4 µM)

Source: patent US7022667B2, “O-derivatized nocathiacin derivatives” (Bristol-Myers Squibb Company, priority 2002, dated 2006)
